Results on one molecule are retold here after patent publication US11007128B2, “Composition for preventing or treating dental erosion” (MEDA OTC AB, priority 2014, dated 2021).

For assay [1] the following is noted: 0.15% HF at pH 2.58, 5 minutes at 37° C.; then 2% citric acid 15 minutes at 37° C.
Text: A low vacuum scanning electron microscope, JEOL JSM 6610 LV, was used for studying surfaces.
SEM pictures were taken with 5000 times magnification (SEM×5000).
A human ex vivo tooth (premolar) was received from a dentist practice. The tooth was stored in Ringer solution and kept in refrigerator.
The effect of the HF treatment on HA surfaces was verified using an ex vivo human premolar tooth. The tooth had been split into two halves before the experiment (tooth 1:1 and tooth 1:2). The two tooth halves were rinsed with distilled water. One tooth half was placed in a 50 ml plastic bottle containing 2% citric acid and then allowed to incubate at 37° C. for 15 minutes under gentle agitation. The tooth was then rinsed with distilled water for a few minutes and then put on tissue paper to dry. […] The tooth half was rinsed with distilled water and then immersed in 2% citric acid and then allowed to incubate at 37° C. for 15 minutes under gentle agitation. The tooth was then rinsed with distilled water and left to dry on tissue paper for a few minutes.
For assay [2] the following is noted: 0.2% HF solution, pH 2.0, ~0.1 mol/l F; sound enamel; cited from earlier work.

Regarding `F` [HF, hydrogen fluoride], the “SEM: protection of enamel from etching” value in assay [1] is on record as “clearly protected from etching”. Moreover, the “duration of protective effect against citric acid attack” value in assay [2] is reported as “at least 1 week”.
